Laboratory results as given in paper PMC12303054, “First-in-class inhibitors of Nsp15 endoribonuclease of SARS-CoV-2: Modeling, synthesis, and enzymatic assay of thiazolidinedione and rhodanine analogs” (The Journal of Biological Chemistry, 2025).
Values joined by “and” are separate entries in the source; they are usually repeats but may differ in a detail not shown here. Equal entries are not always repeated. “Also recorded” adds a separate entry of the source. Where two headings read alike, the source gives them in different places.

Tests used:
[1] = molecular target: T1, wildtype SARS-CoV-2 Nsp15 (Severe acute respiratory syndrome coronavirus 2, UniProt P0DTD1); experiment: biochemical; conditions: for IC50: 150 nM enzyme, 1.2 μM substrate, 30 min, 25 °C, mean (SD), duplicates; for change of inhibitory effect relative to parent analog: comparison of IC50 values; for IC50 versus time: IC50 calculated every 5 min for 30 min; for inhibition model: extra sum-of-squares F test; for Vmax: fit parameter of mixed inhibition model for the named inhibitor
Nsp15 = conditions: cited from earlier work
SARS-CoV-2 RNA = type: cell-based; conditions: 24 h infection, MOI = 0.1
SARS-CoV-2 Nsp15 = SARS-CoV-2 Nsp15 (Severe acute respiratory syndrome coronavirus 2, UniProt P0DTD1); experiment: Reversibility by the dilution method; type: biochemical; conditions: preincubated 60 min, diluted 1:100
in vitro = type: cell-based; conditions: African green monkey, uninfected cells, intracellular ATP
Procedure: (§1) Initially, we grew VeroE6/TMPRSS2 cells overnight in 96-well plates at 10,000 cells per well. The next day, we added increasing concentrations of the tested compound (500, 200, 100, 50, 20, 10, 5, 2, and 1 μM) and DMSO as a control. We let the cells incubate with inhibitors for 24 h. After 24 h, we measured the viability of these cells using the CellTiter-Glo Luminescent Cell Viability Assay (Promega), according to the manufacturer’s instructions. We incubated cells in 100 μl of media with 100 μl of CellTiter-Glo reagent, which contains Ultra-Glo luciferase and the substrate luciferin. The luciferase converts luciferin to luminescent oxyluciferin in the presence of ATP. Viable cells produce more ATP and generate a stronger luminescent signal. We mixed samples by shaking for 10 min and measured luminescence by a VICTOR Nivo Plate Reader (Avantor Science Central).

SARS-CoV-2 = SARS-CoV-2 plaque assay in VeroE6/TMPRSS2 cells; type: cell-based; conditions: for IC50: 24 h infection, MOI = 0.1, read-out: IC50 (viral inhibition, plaque assay)
[2] = molecular target: T1, wildtype SARS-CoV-2 Nsp15; experiment: Nsp15 inhibition in HEPES buffer assay conditions; type: biochemical; conditions: 10 nM Nsp15, 500 nM substrate, 100 μM compound
VeroE6/TMPRSS2 cells = experiment: in vitro; type: cell-based; conditions: uninfected cells, 24 h, intracellular ATP
Procedure: as §1

[3] = noncompetitive inhibition model, IC50-to-Ki converter, read-out: Predicted Ki
[4] = Severe acute respiratory syndrome coronavirus 2, VeroE6/TMPRSS2, 24 h
[5] = mixed inhibition model fit, mean ± SD
[6] = mixed inhibition model fit, mean ± SD, read-out: Ki

With O=C1NC(=O)C(=CC=Cc2ccc3cnccc3c2)S1 [KCO236, 5-(3-isoquinolin-6-yl-allylidene)-thiazolidine-2,4-dione] the “inhibitory effect on Nsp15 activity” value [1] was “submicromolar levels”, the IC50 [1] was 0.932 µM and the “change of inhibitory effect relative to parent analog” value [1] was “moderate increase in inhibitory effect”. The Ki [1, 3] was 0.857 µM.
For Oc1ccc2ccccc2c1SSc1c(O)ccc2ccccc12 [IPA-3], the IC50 (Nsp15) is given as 7 µM and the “inhibition mechanism” value (Nsp15) is given as “irreversibly inhibited Nsp15”.
In the case of O=C1C(SCCO)=C(SCCO)C(=O)c2ccccc21 [NSC95397], the IC50 (Nsp15) is listed as 43 µM.
For O=C1NC(=O)C(=CC=Cc2cccc3ccccc23)S1 [KCO231, 5-(3-naphthalen-1-yl-allylidene)-thiazolidine-2,4-dione], the IC50 [1] was 4.41 µM, the “change of inhibitory effect relative to parent analog” value [1] was “doubled the inhibitory effect” and the Ki [1, 3] was 4.34 µM.
For Oc1c(Cl)cc(Cl)c(Cl)c1Cc1c(O)c(Cl)cc(Cl)c1Cl [hexachlorophene], the IC50 (Nsp15) is given as 1 µM.
With O=C1NC(=S)SC1=CC=Cc1ccnc2ccccc12 [KCO237, 5-(3-quinolin-4-yl-allylidene)-2-thioxo-thiazolidine-4-one] the “intracellular SARS-CoV-2 RNA” value (SARS-CoV-2 RNA) was “significantly reduced viral RNA in a dose-dependent manner”, the “Nsp15 activity after inhibitor dilution” value (SARS-CoV-2 Nsp15) was “recovered its activity” and the CC50 at 24 h (in vitro) was > 500 µM. For the same molecule, the IC50 (SARS-CoV-2) was 13.9 ± 1.95 µM, the IC50 (SARS-CoV-2; [4]) was 14 µM and the “inhibitory effect on Nsp15 activity” value [1] was “submicromolar levels”. The IC50 [1] was 0.304 µM, the Ki ([1]; Cheng–Prusoff equation, noncompetitive inhibition assumed, read-out: predicted Ki) was 0.23 µM and the “IC50 versus time” value [1] was “consistent through the period of the assay; also recorded: remained constant over the time of the assay”. For the same molecule, the “change of inhibitory effect relative to parent analog” value [1] was “fivefold increase in potency compared with KCO048”, the “inhibition model” value [1] was “reversible mixed inhibition model” and the Vmax [1] was 1.57 ± 0.0568 µM/min. The α [1, 5] was 0.343 ± 0.188, the Ki [1, 6] was 0.318 ± 0.134 µM and the Ki [1, 3] was 0.229 µM. For the same molecule, the “inhibition under HEPES assay conditions” value [2] was “inhibited Nsp15 more potently than tipiracil under these conditions”.
For N=C1CCCN1Cc1nc(O)nc(O)c1Cl [Tipiracil, tipiracil, reference compound], the IC50 (Nsp15) is given as 7.5 µM, the “inhibitory effect on Nsp15 activity” value [1] is given as “did not inhibit Nsp15 activity” and the IC50 [1] is given as > 1000 µM. For the same molecule, the “inhibition under HEPES assay conditions” value [2] was “did inhibit Nsp15 under these conditions but to a lesser extent than KCO237 and KCO251”.
For O=C1NC(=O)C(=CC=Cc2ccnc3ccccc23)S1 [KCO048], the “inhibitory effect on Nsp15 activity” value [1] was “low micromolar concentrations”, the IC50 [1] was 1.35 µM and the “change of inhibitory effect relative to parent analog” value [1] was “threefold greater inhibitory effect than KCO231”. For the same molecule, the Ki [1, 3] was 1.27 µM.
With CN1C(=O)SC(=CC=Cc2c3ccccc3cc3ccccc23)C1=O [KCO238, 3-methyl-5-(3-anthracen-9-yl-allylidene)-thiazolidine-2,4-dione] the “inhibitory effect on Nsp15 activity” value [1] was “did not inhibit Nsp15 activity; also recorded: lose their inhibitory effect” and the IC50 [1] was 106 µM.
In the case of O=C1NC(=O)C(=CC=Cc2c3ccccc3cc3ccccc23)S1 [KCO035, 5-(3-anthracen-9-yl-allylidene)-thiazolidine-2,4-dione], the “inhibitory effect on Nsp15 activity” value [1] is reported as “mild inhibitory effect”, the IC50 [1] is reported as 7.21 µM and the inhibition at 100 µM ([1]; 100 μM compound) is reported as ~80%. The Ki [1, 3] was 7.14 µM.
In the case of O=C1NC(=O)C(=CC=Cc2cncc3ccccc23)S1 [KCO234, 5-(3-isoquinolin-4-yl-allylidene)-thiazolidine-2,4-dione], the IC50 [1] is reported as 7.38 µM, the “change of inhibitory effect relative to parent analog” value [1] is reported as “did not enhance inhibitory activity” and the Ki [1, 3] is reported as 7.3 µM.
With CN1C(=O)SC(=CC=Cc2cccc3ccccc23)C1=O [KCO250, 3-methyl-5-(3-naphthalen-1-yl-allylidene)-thiazolidine-2,4-dione] the “inhibitory effect on Nsp15 activity” value [1] was “did not inhibit Nsp15 activity; also recorded: lose their inhibitory effect” and the IC50 [1] was > 1000 µM.
In the case of O=C1NC(=O)C(=CC=Cc2ccccc2)S1 [KCO036, 5-(3-Phenyl-allylidene)-thiazolidine-2,4-dione], the “inhibitory effect on Nsp15 activity” value [1] is reported as “weak inhibitor”, the IC50 [1] is reported as 9.4 µM and the “change of inhibitory effect relative to parent analog” value [1] is reported as “reduced inhibitory effect”. It also gave a Ki [1, 3] of 9.33 µM.
With O=C1NC(=S)SC1=CC=Cc1cncc2ccccc12 [KCO251, 5-(3-isoquinolin-4-yl-allylidene)-2-thioxo-thiazolidin-4-one] the “intracellular SARS-CoV-2 RNA” value (SARS-CoV-2 RNA) was “significantly reduced viral RNA in a dose-dependent manner”, the “Nsp15 activity after inhibitor dilution” value (SARS-CoV-2 Nsp15) was “recovered its activity” and the CC50 (VeroE6/TMPRSS2 cells) was 311 ± 120 µM. The CC50 at 24 h (in vitro) was > 300 µM, the “selectivity index (SI)” value (SARS-CoV-2; CC50 over IC50) was ~13 and > 10 and the IC50 (SARS-CoV-2; [4]) was 24 µM. For the same molecule, the “inhibitory effect on Nsp15 activity” value [1] was “submicromolar levels”, the IC50 [1] was 0.931 µM and the “IC50 versus time” value [1] was “consistent through the period of the assay; also recorded: remained constant over the time of the assay”. For the same molecule, the “change of inhibitory effect relative to parent analog” value [1] was “eightfold increase in inhibition potency”, the “inhibition model” value [1] was “reversible mixed inhibition model” and the Vmax [1] was 3.38 ± 0.170 µM/min. The α [1, 5] was 0.293 ± 0.280, the Ki [1, 6] was 0.471 ± 0.33 µM and the Ki [1, 3] was 0.856 µM. The “inhibition under HEPES assay conditions” value [2] was “inhibited Nsp15 more potently than tipiracil under these conditions”.
For O=C1NC(=S)SC1=CC=Cc1c2ccccc2cc2ccccc12 [KCO230, 5-(3-anthracen-9-yl-allylidene)-2-thioxo-thiazolidin-4-one], the IC50 [1] was 4.58 µM, the “change of inhibitory effect relative to parent analog” value [1] was “nearly doubled” and the Ki [1, 3] was 4.5 µM.
For O=C1NC(=S)SC1=CC=Cc1cccc2ccccc12 [KCO249, 5-(3-naphthalen-1-yl-allylidene)-2-thioxo-thiazolidin-4-one], the “inhibitory effect on Nsp15 activity” value [1] was “low micromolar concentrations”, the “change of inhibitory effect relative to parent analog” value [1] was “enhanced its inhibitory effect by sixfold” and the Ki [1, 3] was 1.28 µM.
With O=C1NC(=O)C(=CC=Cc2cccc3ccncc23)S1 [KCO235, 5-(3-isoquinolin-8-yl-allylidene)-thiazolidine-2,4-dione] the IC50 [1] was 4.17 µM, the “change of inhibitory effect relative to parent analog” value [1] was “moderate increase in inhibitory effect” and the Ki [1, 3] was 4.1 µM.
